From US11230586B2, “Exosome production method” (TOAGOSEI CO., LTD., priority 2019, dated 2022)
Ends that are not written are not given here.

What was measured:
[1] = tested on: HeLa cells; experiment: Measurement of amount of protein per exosome particle (BCA assay, equation (1)); format: cell-based, human
Text: More specifically, the analyzing step preferably includes, for example, measurement of the total of amount of protein P (μg/mL) contained in the exosome fraction. A conventionally known method (such as BCA assay) can be used without any particular limitations to measure the amount of proteins. As a result, the average amount of protein per exosome, EP (μg), can be calculated based on the following equation (1). […]
(§1) More specifically, a currently commercially available human cervical cancer cell line (HeLa cells) was used as the test cultured cells.
(§2) α-MEM medium containing 10% FBS (product of Gibco) was used to culture the HeLa cells. Furthermore, FBS free of native exosomes derived from animal serum was used for the FBS.
(§3) A suitable amount of medium containing FBS at a concentration of 10% was placed in cell culture dishes having a diameter of 100 mm followed by seeding with HeLa cells so that the number of cells per dish was about 2×10^6 cells.
(§4) Next, the cells were cultured in a-MEM medium containing 10% FBS having the sample peptide suspended therein at a concentration of 5 μM under conditions of 5% CO2 at 37° C. for 48 hours.
Subsequently, the culture broth was obtained and subjected to ultracentrifugation to isolate and recover the exosomes. […]
The amount of protein was measured for each of the three exosome fractions produced as described above. […]

[2] = tested on: HeLa cells; experiment: Calculation of number of exosomes in exosome fractions from treated HeLa cells (NanoSight LM10); format: cell-based, human
Text: as §1, §2, §3, §4
Subsequently, the culture broth was obtained and subjected to ultracentrifugation to isolate and recover the exosomes. More specifically, centrifugation was carried out continuously as described below under conditions of 4° C. […]
The number of exosomes was calculated for each of the three exosome fractions produced as described above. More specifically, the numbers of exosome particles in the exosome fractions were counted followed by calculating the number of exosomes using NanoSight LM10 (Malvern Panalytical Ltd.).

“FIGNLALSDLLAGVAYTANLLLKKRTLRKNDRKKR-CONH2 (FIGNLALSDLLAGVAYTANLLLKKRTLRKNDRKKR-NH2) [Example]” was tested, and the Amount of protein ([1]; HeLa cells cultured 48 hours with 5 μM test substance, total protein by BCA divided by particle number) was 5.9 ×10^−8 μg/exosome, the “amount of proteins in the exosomes (change, in words)” value ([1]; HeLa cells, 5 μM, 48 hours, in comparison with Comparative Example 1 and Comparative Example 2) was “decreased considerably” and the Exosome concentration ([2]; HeLa cells cultured 48 hours with 5 μM test substance, exosome fraction by ultracentrifugation, suspended in PBS) was 8.31e+08 mL⁻¹. The “number of exosomes (change, in words)” value ([2]; HeLa cells, 5 μM, 48 hours, versus Comparative Examples) was “increase considerably”.
